The NIST ThermoML archive (doi:10.1021/acs.jced.6b00972)
Numbers after ± are expanded uncertainties.

Assays:
[1] = Crystal; DTA
[2] = Molar enthalpy of transition or fusion; settings: Crystal; DSC

Structure (SMILES): CCOc1cc(C=O)ccc1O [3-ethoxy-4-hydroxybenzaldehyde]
- Normal melting temperature [1]: 78 ± 1.1 °C
- Molar enthalpy of transition or fusion [2]: 5.64 ± 1.24 kcal/mol
